US9580400B2, “Cannabinergic nitrate esters and related analogs” (Northeastern University, priority 2013, dated 2017)
pEC50, pKi: −log10 of the molar value.

Columns and labels:
[1] = molecular target: T1, rCB1 (Rattus norvegicus, UniProt P20272); assay: rCB1 competition-equilibrium binding using [3H]CP-55,940, rat brain membranes; details: Ki calculated from IC50, read-out: rCB1 affinity data
T1 construct: tissue Pel-Freeze Biologicals; host or cells: rat brain membranes
Protocol: Frozen rat brains (CB1 source) are obtained from Pel-Freeze Biologicals (Rogers, A K) and stored at −80° C. until use. Membranes are prepared according to the method described in Brain Res 1981, 226, (1-2), 107-18 and adapted as previously reported in J Med Chem 1994, 37, (23), 3867-70 and Life Sci 1995, 56, (23-24), 1957-62; each herein incorporated by reference in its entirety.
(§1) The compounds are tested for their ability to bind to CB1 and CB2 receptors using rat brain or HEK293 cell membranes expressing hCB2 and mCB2 membrane preparations, respectively, as described in J Med Chem 1999, 42, (4), 769-776, J Med Chem 1994, 37, (23), 3867-70 and Life Sci 1995, 56, (23-24), 1957-62 (each herein incorporated by reference in its entirety) via competition-equilibrium binding using [^3H]CP-55,940. The results are analyzed using nonlinear regression to determine the actual IC50 of the ligand (Prizm by GraphPad Software, Inc.) and the Ki values are calculated from the IC50 as described in Biochemical Pharmacology 1973, 22, (23), 3099-3108; herein incorporated by reference in its entirety.

[2] = molecular target: T2, hCB2 (Homo sapiens, UniProt P34972); assay: hCB2 competition-equilibrium binding using [3H]CP-55,940, HEK293 cell membranes; details: HEK293 cell membranes expressing hCB2; Ki calculated from IC50; read-out: hCB2 affinity data
T2 construct: expressed in transfected cells; host or cells: HEK293
T2 sequence (P34972 whole entry): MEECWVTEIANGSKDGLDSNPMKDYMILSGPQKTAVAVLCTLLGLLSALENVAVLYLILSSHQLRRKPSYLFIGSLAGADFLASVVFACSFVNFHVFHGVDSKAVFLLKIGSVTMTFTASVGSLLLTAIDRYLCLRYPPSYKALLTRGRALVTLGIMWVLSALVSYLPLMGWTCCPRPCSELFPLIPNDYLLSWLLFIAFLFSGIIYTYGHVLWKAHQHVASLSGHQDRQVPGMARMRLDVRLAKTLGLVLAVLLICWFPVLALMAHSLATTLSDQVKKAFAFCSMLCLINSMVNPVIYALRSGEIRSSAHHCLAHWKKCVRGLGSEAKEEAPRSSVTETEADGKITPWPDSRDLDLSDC
Protocol: HEK293 cells expressing hCB1, hCB2 or mCB2 receptor are used for membrane preparations according to the method described in J Neurochem 1999, 72, (5), 2032-8, herein incorporated by reference in its entirety. The resulting pellet is resuspended in 10 mM Tris-chloride, pH 7.4 with 5 mM MgCl2 and 2 mM EDTA (TME), and stored at −80° C. for no longer than two months. Protein content is assayed by using the Bio-Rad DC protein assay according to the manufacturer's protocol.
as §1

[3] = molecular target: T3, human GPR55 receptor (Homo sapiens, UniProt Q9Y2T6); assay: β-arrestin2 translocation assay, GPR55, U2OS cells; type: cell-based
T3 construct: human GPR55 receptor modified with human vasopressin V2 receptor tail [GPR55(E)]; fused on or other part: C-terminal tail of the human vasopressin V2 receptor (AVPR2), added to strengthen beta-arrestin recruitment; HA tag; Beta-arrestin 2-GFP is co-expressed as the read-out
T3 sequence (Q9Y2T6 1-292 limits assumed): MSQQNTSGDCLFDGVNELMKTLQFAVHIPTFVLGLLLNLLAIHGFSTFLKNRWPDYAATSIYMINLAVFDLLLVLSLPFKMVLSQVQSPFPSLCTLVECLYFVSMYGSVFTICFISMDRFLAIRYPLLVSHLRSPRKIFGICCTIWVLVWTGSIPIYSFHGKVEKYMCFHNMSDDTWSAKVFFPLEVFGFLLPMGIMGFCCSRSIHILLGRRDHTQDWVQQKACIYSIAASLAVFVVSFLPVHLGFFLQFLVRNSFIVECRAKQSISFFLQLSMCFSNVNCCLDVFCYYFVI
Protocol: Test compounds were screened in U2OS cells permanently expressing β-arrestin 2-GFP and human GPR55 receptor modified with human vasopressin V2 receptor tail [GPR55(E)].
β-arrestin2 translocation: For both agonist and antagonist assays, the U2OS cells permanently transfected with β-arrestin 2-GFP and human GPR55(E) were used to trace β-arrestin translocation upon compound treatment. U2OS cells permanently expressing HA-GPR55E and βarr2-GFP were plated into 96 or 384 glass bottomed well plates in clear MEM. For the antagonist assay, compounds in DMSO (final concentration <1%) were added to cells 15 min prior to LPI (agonist) addition and the plates were placed in a 5% 37 degree CO2 incubator (LPI was used at 6 μM). For agonist evaluation only the compound of interest is placed on the wells. Following 40 minute incubation, the cells are fixed by adding paraformaldehyde to 4%. Image acquisition is performed using the Cellomics Arrayscan VTI High Content (HC) cell based imaging system and a ×40 lens. Image analysis is done by using the Batchmode computer software evaluating wavelet information which reflects the number and intensity of fluorescent aggregation (procedures performed at Duke University and adopted from http://www.ncbi.nlm.nih.gov/books/NBK66153/and J. Biol. Chem. 2009; 284(43):29817-27 herein incorporated by reference in its entirety). FIG. 15 describes the biochemical assay for compound 78 wherein the β-arrestin assessment of GPR55 activation is shown.

[4] = antagonist assay, compound added 15 min prior to LPI (6 μM), U2OS cells with β-arrestin 2-GFP and GPR55(E)

T1 sequence (P20272 whole entry): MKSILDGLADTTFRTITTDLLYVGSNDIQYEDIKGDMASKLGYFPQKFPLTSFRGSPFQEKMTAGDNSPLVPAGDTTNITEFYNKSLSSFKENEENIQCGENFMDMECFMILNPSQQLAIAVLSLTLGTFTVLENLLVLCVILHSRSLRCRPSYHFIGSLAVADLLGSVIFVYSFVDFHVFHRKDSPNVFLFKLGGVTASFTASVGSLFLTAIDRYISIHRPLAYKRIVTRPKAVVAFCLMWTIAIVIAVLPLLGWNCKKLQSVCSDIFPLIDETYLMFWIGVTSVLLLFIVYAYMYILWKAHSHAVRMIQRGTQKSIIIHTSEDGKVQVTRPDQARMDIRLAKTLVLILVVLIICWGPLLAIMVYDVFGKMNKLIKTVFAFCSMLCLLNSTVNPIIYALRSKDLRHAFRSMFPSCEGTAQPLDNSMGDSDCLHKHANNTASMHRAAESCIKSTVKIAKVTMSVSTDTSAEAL

| Molecule | pKi [1] | pKi [2] | GPR55 EC50 [3, 4] | also measured |
| --- | --- | --- | --- | --- |
| CC1=CC[C@@H]2[C@@H](C1)c1c(O)cc(C(C)(C)CCCCO[N+](=O)[O-])cc1OC2(C)C [compound 1, 5-((6aR,1aR)-1-hydroxy-6,6,9-trimethyl-6a,7,10,10a-tetrahydro-6H-benzo[c]chromen-3-yl)-5-methylhexyl nitrate] | 10.00 | 9.00 | – | – |
| C=C(C)[C@@H]1CCC(C)=C[C@H]1c1c(O)cc(CCCCC)cc1O [cannabidiol] | – | – | none | – |
| C=C(C)[C@@H]1CCC(C)=C[C@H]1c1c(O)cc(O)cc1CCCCC [abn-cannabidiol, abnormal cannabidiol] | – | – | none | – |
| C=C(C)[C@@H]1CCC(C)=C[C@H]1c1c(O)cc(C(C)(C)CCCCO[N+](=O)[O-])cc1O [compound 78, 5-((1′R,2′R)-2,6-dihydroxy-5′-methyl-2′-(prop-1-en-2-yl)-1′,2′,3′,4′-tetrahydro-[1,1′-biphenyl]-4-yl)-5-methylhexyl nitrate] | 7.22 | 7.46 | – | pEC50 [3, 4]: 5.40 to 5.70 |
| CCCCCc1cc(O)c2c(c1)OC(C)(C)[C@@H]1CCC(C)=C[C@@H]21 [Δ^9-THC, Δ^9-tetrahydrocannabinol] | – | – | none | – |
| L-α-lysophosphatidylinositol [LPI] | – | – | – | pEC50 ([3]; LPI (agonist) line of the antagonist assay table): 5.22 |
